pIC50: −log10 of the molar value.
Experiments:
[1] = test system: B-lymphocyte cancer cells (U266); experiment: In vitro cytotoxicity, CellTiter-Glo 96 h, U266; settings: Homo sapiens, U-266, read-out: Cytotoxic potency as free drug, IC50, U266
Experimental: (§1) In vitro potency was assessed on multiple cancer cell lines. All cell lines were authenticated by STR profiling at IDEXX Bioresearch and cultured for no more than 2 months after resuscitation. Cells cultured in log-phase growth were seeded for 24 hours in 96-well plates containing 150 μl RPMI 1640 supplemented with 20% FBS. Serial dilutions of antibody-drug conjugates in cell culture media were prepared at 4× working concentrations, and 50 μl of each dilution was added to the 96-well plates. Following addition of test articles, cells were incubated with test articles for 4 days at 37° C. After 96 hours, growth inhibition was assessed by CellTiter-Glo® (Promega, Madison, Wis.) and luminescence was measured on a plate reader.
(§2) Cell viability was determined by CellTiter-Glo staining after 96 h exposure to ADC. […] Ag1 is an antibody targeting a ubiquitous and readily internalizable antigen on cancer cells, Ag2 is cAC10 antibody targeting CD30(+) cancer cells, Ag3 is h1F6 antibody targeting CD70(+) cancer cells, Ag4 is hMEM102 antibody targeting CD48(+) cancer cells, Ag5 is h20F3 antibody targeting NTB-A expressing cancer cells, and h00 is a non-binding control antibody.

[2] = test system: renal carcinoma cells (786-O); experiment: In vitro cytotoxicity, CellTiter-Glo 96 h, 786-O; settings: Homo sapiens, 786-0, read-out: Cytotoxic potency (IC50 class), 786-O
Experimental: as §1
(§3) Cell viability was determined by CellTiter-Glo staining after 96 h exposure to ADC.

[3] = test system: pancreatic cancer cells (BxPC3); experiment: In vitro cytotoxicity, CellTiter-Glo 96 h, BxPC3; settings: Homo sapiens, BXPC-3, read-out: Cytotoxic potency (IC50 class), BxPC3
Experimental: as §1, §3

[4] = test system: acute promyelocytic leukemia cells (HL-60); experiment: In vitro cytotoxicity, CellTiter-Glo 96 h, HL-60; settings: Homo sapiens, HL-60, read-out: Cytotoxic potency (IC50 class), HL-60
Experimental: as §1, §2

[5] = test system: multiple myeloma cells (MM.1R); experiment: In vitro cytotoxicity, CellTiter-Glo 96 h, MM.1R; settings: read-out: Cytotoxic potency (IC50 class), MM.1R
Experimental: as §1, §2

[6] = test system: Burkitt's lymphoma cells (Ramos); experiment: In vitro cytotoxicity, CellTiter-Glo 96 h, Ramos; settings: Homo sapiens, read-out: Cytotoxic potency as free drug, IC50, Ramos
Experimental: as §1, §3

[7] = test system: Hodgkin's lymphoma cells (L540cy); experiment: In vitro cytotoxicity, CellTiter-Glo 96 h, L540cy; settings: read-out: Cytotoxic potency (IC50 class), L540cy
Experimental: as §1, §3

[8] = test system: acute myeloid leukemia cells (MOLM13); experiment: In vitro cytotoxicity, CellTiter-Glo 96 h, MOLM13; settings: Homo sapiens, MOLM-13, read-out: Cytotoxic potency as free drug, IC50, MOLM13
Experimental: as §1, §3

[9] = test system: multiple drug resistant acute promyelocytic leukemia cells (HL-60/RV); experiment: In vitro cytotoxicity, CellTiter-Glo 96 h, HL60/RV; settings: Homo sapiens, HL-60, read-out: Cytotoxic potency (IC50 class), HL60/RV
Experimental: as §1, §3

[10] = test system: melanoma cells (SK-MEL-5); experiment: In vitro cytotoxicity, CellTiter-Glo 96 h, SK-MEL-5; settings: Homo sapiens, SK-MEL-5, read-out: Cytotoxic potency as free drug, IC50, SK-MEL-5
Experimental: as §1, §2

[11] = test system: B-lymphocyte cancer cells (SU-DHL-4); experiment: In vitro cytotoxicity, CellTiter-Glo 96 h, SU-DHL-4; settings: Homo sapiens, SU-DHL-4, read-out: Cytotoxic potency as free drug, IC50, SU-DHL-4
Experimental: as §1, §2

Compound	pIC50 [1]	pIC50 [2]	pIC50 [3]	pIC50 [4]	pIC50 [5]	pIC50 [6]	pIC50 [7]	pIC50 [8]	pIC50 [9]	pIC50 [10]	pIC50 [11]
CCCCNCc1c2c(nc3cc4c(cc13)OCO4)-c1cc3c(c(=O)n1C2)COC(=O)[C@]3(O)CC [Compound 5k]	8.00 to 9.00	8.00 to 9.00	8.00 to 9.00	7.00 to 8.00	8.00 to 9.00	8.00 to 9.00	8.00 to 9.00	8.00 to 9.00	8.00 to 9.00	8.00 to 9.00	8.00 to 9.00
CC[C@@]1(O)C(=O)OCc2c1cc1n(c2=O)Cc2c-1nc1cc3c(cc1c2C)OCO3 [Compound 6p]	9.00 to 10.00	9.00 to 10.00	9.00 to 10.00	7.00 to 8.00	9.00 to 10.00	9.00 to 10.00	9.00 to 10.00	8.00 to 9.00	8.00 to 9.00	9.00 to 10.00	9.00 to 10.00
CC[C@@]1(O)C(=O)OCc2c1cc1n(c2=O)Cc2c-1nc1cc3c(cc1c2CN(C)CCNC)OCO3 [Compound 5x]	7.00 to 8.00	7.00 to 8.00	6.00 to 7.00	6.00 to 7.00	7.00 to 8.00	7.00 to 8.00	7.00 to 8.00	7.00 to 8.00	6.00 to 7.00	7.00 to 8.00	7.00 to 8.00
CC[C@@]1(O)C(=O)OCc2c1cc1n(c2=O)Cc2cc3cc4c(cc3nc2-1)OCO4 [Compound 6o]	8.00 to 9.00	8.00 to 9.00	8.00 to 9.00	6.00 to 7.00	8.00 to 9.00	9.00 to 10.00	8.00 to 9.00	7.00 to 8.00	7.00 to 8.00	8.00 to 9.00	8.00 to 9.00
CC[C@@]1(O)C(=O)OCc2c1cc1n(c2=O)Cc2c-1nc1cc(F)c(C)c3c1c2[C@@H](N)CC3 [Compound 8b]	8.00 to 9.00	8.00 to 9.00	8.00 to 9.00	7.00 to 8.00	8.00 to 9.00	9.00 to 10.00	8.00 to 9.00	7.00 to 8.00	7.00 to 8.00	8.00 to 9.00	8.00 to 9.00
CCc1c2c(nc3ccc(O)cc13)-c1cc3c(c(=O)n1C2)COC(=O)[C@]3(O)CC [Compound 8d]	8.00 to 9.00	8.00 to 9.00	8.00 to 9.00	8.00 to 9.00	8.00 to 9.00	7.00 to 8.00	7.00 to 8.00	8.00 to 9.00	7.00 to 8.00	8.00 to 9.00	8.00 to 9.00
CC[C@@]1(O)C(=O)OCc2c1cc1n(c2=O)Cc2c-1nc1cc3c(cc1c2C1CCCCCC1)OCO3 [Compound 6j]	8.00 to 9.00	8.00 to 9.00	8.00 to 9.00	7.00 to 8.00	8.00 to 9.00	9.00 to 10.00	8.00 to 9.00	8.00 to 9.00	8.00 to 9.00	8.00 to 9.00	8.00 to 9.00
CC[C@@]1(O)C(=O)OCc2c1cc1n(c2=O)Cc2c-1nc1cc3c(cc1c2CNCCCCO)OCO3 [Compound 5f]	8.00 to 9.00	8.00 to 9.00	7.00 to 8.00	7.00 to 8.00	8.00 to 9.00	8.00 to 9.00	8.00 to 9.00	8.00 to 9.00	6.00 to 7.00	8.00 to 9.00	8.00 to 9.00
CC[C@@]1(O)C(=O)OCc2c1cc1n(c2=O)Cc2c-1nc1cc3c(cc1c2CNC1CCCCC1)OCO3 [Compound 5d]	8.00 to 9.00	8.00 to 9.00	8.00 to 9.00	7.00 to 8.00	8.00 to 9.00	8.00 to 9.00	8.00 to 9.00	8.00 to 9.00	8.00 to 9.00	8.00 to 9.00	8.00 to 9.00
CC[C@@]1(O)C(=O)OCc2c1cc1n(c2=O)Cc2c-1nc1cc3c(cc1c2C1CCCC1)OCO3 [Compound 6i]	8.00 to 9.00	8.00 to 9.00	8.00 to 9.00	7.00 to 8.00	8.00 to 9.00	9.00 to 10.00	8.00 to 9.00	8.00 to 9.00	8.00 to 9.00	8.00 to 9.00	9.00 to 10.00
CC[C@@]1(O)C(=O)OCc2c1cc1n(c2=O)Cc2c-1nc1cc3c(cc1c2CNC(C)C)OCO3 [Compound 5c]	8.00 to 9.00	8.00 to 9.00	8.00 to 9.00	8.00 to 9.00	8.00 to 9.00	9.00 to 10.00	8.00 to 9.00	8.00 to 9.00	8.00 to 9.00	8.00 to 9.00	8.00 to 9.00
CC[C@@]1(O)C(=O)OCc2c1cc1n(c2=O)Cc2c-1nc1cc3c(cc1c2CN)OCO3 [Compound 4, 7-methylamino Derivative-methylenedioxy camptothecin]	8.00 to 9.00	8.00 to 9.00	8.00 to 9.00	7.00 to 8.00	8.00 to 9.00	8.00 to 9.00	8.00 to 9.00	8.00 to 9.00	7.00 to 8.00	8.00 to 9.00	9.00 to 10.00
CC[C@@]1(O)C(=O)OCc2c1cc1n(c2=O)Cc2c-1nc1cc3c(cc1c2CNCC(C)C)OCO3 [Compound 5i]	8.00 to 9.00	8.00 to 9.00	8.00 to 9.00	7.00 to 8.00	8.00 to 9.00	8.00 to 9.00	8.00 to 9.00	8.00 to 9.00	8.00 to 9.00	8.00 to 9.00	8.00 to 9.00
CC[C@@]1(O)C(=O)OCc2c1cc1n(c2=O)Cc2c-1nc1cc3c(cc1c2-c1ccccc1)OCO3 [Compound 6d]	8.00 to 9.00	8.00 to 9.00	8.00 to 9.00	8.00 to 9.00	8.00 to 9.00	9.00 to 10.00	8.00 to 9.00	8.00 to 9.00	8.00 to 9.00	8.00 to 9.00	9.00 to 10.00
CC[C@@]1(O)C(=O)OCc2c1cc1n(c2=O)Cc2c-1nc1cc3c(cc1c2CNCc1ccc(N)cc1)OCO3 [Compound 5e]	7.00 to 8.00	7.00 to 8.00	7.00 to 8.00	7.00 to 8.00	8.00 to 9.00	8.00 to 9.00	8.00 to 9.00	8.00 to 9.00	6.00 to 7.00	7.00 to 8.00	8.00 to 9.00
CC[C@@]1(O)C(=O)OCc2c1cc1n(c2=O)Cc2c-1nc1cc3c(cc1c2CN(C)CCN(C)C)OCO3 [Compound 5t]	7.00 to 8.00	8.00 to 9.00	7.00 to 8.00	6.00 to 7.00	8.00 to 9.00	8.00 to 9.00	8.00 to 9.00	7.00 to 8.00	7.00 to 8.00	7.00 to 8.00	8.00 to 9.00
CC[C@@]1(O)C(=O)OCc2c1cc1n(c2=O)Cc2c-1nc1cc3c(cc1c2CNCCN(C)CCO)OCO3 [Compound 5w]	7.00 to 8.00	7.00 to 8.00	7.00 to 8.00	6.00 to 7.00	7.00 to 8.00	8.00 to 9.00	7.00 to 8.00	7.00 to 8.00	7.00 to 8.00	7.00 to 8.00	7.00 to 8.00
CCCCCCc1c2c(nc3cc4c(cc13)OCO4)-c1cc3c(c(=O)n1C2)COC(=O)[C@]3(O)CC [Compound 6k]	8.00 to 9.00	8.00 to 9.00	8.00 to 9.00	6.00 to 7.00	8.00 to 9.00	9.00 to 10.00	8.00 to 9.00	7.00 to 8.00	7.00 to 8.00	8.00 to 9.00	8.00 to 9.00
